Entries after “also recorded” stand apart in the source; their conditions may differ. Read-outs that look alike come from different tables or passages of the source. Bridge positions count the residues as written; N and C are the ends. Peptide text beside a SMILES is read from it. I, II: the chains in the order shown.
What was measured:
[1] = biological target: T1, RXFP4 (Homo sapiens, UniProt Q8TDU9); test: cAMP antagonist assay against 16.6 nM analogue 13 in CHO-K1-RXFP4 cells; format: cell-based; parameters: expressed in transfected cells; host or cells: CHO-K1 (ATCC), stably transfected; details: for Emax: SEM, read-out: RXFP4 Emax (antagonist efficacy)
Method: (§1) The peptides were tested for their ability to inhibit forskolin induced cAMP activity in CHO-K1-RXFP3 or CHO-K1-RXFP4 cells transfected with a pCRE (cAMP Response Element) β-galactosidase reporter plasmid as previously described[9],[34]. For agonist assays cells were stimulated with forskolin (5 µM for RXFP3, 1 µM for RXFP4) plus or minus increasing concentrations of each peptide for 6 hours. For antagonist assays cells were stimulated with forskolin as in agonist assays plus increasing concentrations of each peptide for 10 minutes followed by stimulation with agonist at an ~EC80 concentration for a further 6 hours (10 nM Analogue 2 for RXFP3 and 16.6 nM Analogue 13 for RXFP4). Each peptide was tested in triplicate and each experiment was performed independently at least three times. Agonist data was expressed as the % Forskolin activity whereby 100% was defined as Forskolin alone and 0% as maximum agonist stimulation (1 µM Analogue 2 for RXFP3 and 1 µM Analogue 13 for RXFP4). […] Data were analysed and plotted using GraphPad PRISM 8 and are expressed as the mean ± SEM of the pooled data. Statistical analysis was conducted using one-way ANOVA with Uncorrected Fisher’s LSD post-hoc analysis in GraphPad Prism version 8.

[2] = biological target: T2, RXFP3 (Homo sapiens, UniProt Q9NSD7); test: cAMP agonist assay (inhibition of forskolin-induced cAMP, pCRE β-galactosidase reporter) in CHO-K1-RXFP3 cells; format: cell-based; details: CHO-K1-RXFP3 cells, inhibition of 5 µM forskolin-induced cAMP, 6 hours; mean ± SEM, n in cell
T2 construct: expressed in transfected cells; host or cells: CHO-K1 (ATCC), stably transfected
T2 sequence (Q9NSD7 1-469): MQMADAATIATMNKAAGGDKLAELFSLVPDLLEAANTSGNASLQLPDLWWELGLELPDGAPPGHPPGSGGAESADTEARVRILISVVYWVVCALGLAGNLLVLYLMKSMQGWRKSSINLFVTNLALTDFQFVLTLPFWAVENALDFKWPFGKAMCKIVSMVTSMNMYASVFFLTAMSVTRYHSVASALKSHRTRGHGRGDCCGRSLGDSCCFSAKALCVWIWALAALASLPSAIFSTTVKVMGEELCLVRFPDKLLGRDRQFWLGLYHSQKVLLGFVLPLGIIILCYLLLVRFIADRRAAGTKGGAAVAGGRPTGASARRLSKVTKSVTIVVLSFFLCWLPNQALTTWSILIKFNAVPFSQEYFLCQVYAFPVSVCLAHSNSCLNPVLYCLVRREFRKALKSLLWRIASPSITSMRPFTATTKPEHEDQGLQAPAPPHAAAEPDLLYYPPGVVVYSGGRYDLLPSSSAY
Method: as §1

[3] = biological target: T1, RXFP4; test: Competition binding in CHO-K1-RXFP4 cells (Eu-DTPA-mINSL5); parameters: expressed in transfected cells; host or cells: CHO-K1 (ATCC), stably transfected
Method: (§2) Chinese hamster ovary CHO-K1 cells (sourced from American Type Culture Collection (ATCC), Maryland, USA) stably transfected with RXFP3[33] or RXFP4[9] were plated out onto precoated poly-L-lysine 96-well view plates at a density of 50 000 cells per well. Medium was aspirated off and the cells were washed with phosphate-buffered saline (PBS) before competition binding assays were performed with 5 nM Eu-H3B1–22R[34] (RXFP3 ligand) or 5 nM Eu-DTPA-mINSL5[9] (RXFP4 ligand) as previously described. Competition binding curves were performed in triplicate and each experiment was performed independently at least three times. Fluorescent measurements were carried out on a BMG POLARstar plate reader (BMG Labtech, Melbourne, Australia. Pooled data are presented as mean ± S.E of specific binding and are fitted using one-site binding curve in GraphPad Prism version 8 (GraphPad Inc., San Diego, USA). Statistical analyses were conducted using one-way analysis of variance with uncorrected Fisher’s least significant difference (LSD) post-hoc analysis in GraphPad Prism version 8.

[4] = biological target: T1, RXFP4; test: cAMP agonist assay (inhibition of forskolin-induced cAMP, pCRE β-galactosidase reporter) in CHO-K1-RXFP4 cells; format: cell-based; parameters: expressed in transfected cells; host or cells: CHO-K1 (ATCC), stably transfected; details: CHO-K1-RXFP4 cells, inhibition of 1 µM forskolin-induced cAMP, 6 hours; mean ± SEM, n in cell
Method: as §1

[5] = biological target: T2, RXFP3; test: cAMP antagonist assay against 10 nM analogue 2 in CHO-K1-RXFP3 cells; format: cell-based; details: for Emax: SEM, read-out: RXFP3 Emax (antagonist efficacy)
Method: as §1

[6] = biological target: T2, RXFP3; test: Competition binding in CHO-K1-RXFP3 cells (Eu-H3B1-22R)
Method: as §2

[7] = tested on: RXFP3; details: HEK-293s cells expressing rat and human RXFP3; cited from earlier work
[8] = biological target: T2, RXFP3; details: CRE-reporter gene assay; cited from earlier work
[9] = biological target: T2, RXFP3; details: cited from earlier work
[10] = tested on: RXFP3; details: SK-N-MC/CRE-β-gal cells expressing human RXFP3; cited from earlier work
From the text: Here we have chemically synthesized and pharmacologically characterized ΔR3/I5 for binding and cAMP potency in CHO cells stably expressing RXFP3 (CHO-RXFP3) or RXFP4 (CHO-RXFP4).

[11] = biological target: T1, RXFP4; parameters: expressed in transfected cells; method as in PMID 17606621; details: SK-N-MC/CRE-β-gal cells expressing human RXFP4; cited from earlier work

T1 sequence (Q8TDU9 whole entry): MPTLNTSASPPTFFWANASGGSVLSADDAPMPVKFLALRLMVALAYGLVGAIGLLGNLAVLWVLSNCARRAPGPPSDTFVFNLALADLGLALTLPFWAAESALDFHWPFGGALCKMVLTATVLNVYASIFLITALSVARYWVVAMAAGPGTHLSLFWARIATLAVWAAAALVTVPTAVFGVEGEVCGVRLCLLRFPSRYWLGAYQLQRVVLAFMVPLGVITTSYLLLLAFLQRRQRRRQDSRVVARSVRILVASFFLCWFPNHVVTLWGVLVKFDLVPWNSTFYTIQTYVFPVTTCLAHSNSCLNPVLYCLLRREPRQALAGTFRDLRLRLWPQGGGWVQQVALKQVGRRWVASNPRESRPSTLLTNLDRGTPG

Structure (SMILES): CC[C@H](C)[C@@H]1NC(=O)[C@H](Cc2ccccc2)NC(=O)[C@H](CCC(=O)O)NC(=O)[C@H](CCCNC(=N)N)NC(=O)CNC(=O)[C@@H](NC(=O)[C@H](CC(C)C)NC(=O)[C@H](CCCNC(=N)N)NC(=O)[C@@H](NC(=O)CNC(=O)[C@H](Cc2ccc(O)cc2)NC(=O)[C@H](CCCCN)NC(=O)[C@H](C)NC(=O)[C@H](C)NC(=O)[C@@H](N)CCCNC(=N)N)C(C)C)CSSC[C@H](N)C(=O)N[C@@H]([C@@H](C)O)C(=O)N[C@@H](CC(=O)O)C(=O)NCC(=O)N[C@@H](C)C(=O)N[C@@H](CO)C(=O)N[C@@H](CCSC)C(=O)N[C@@H](CCCCN)C(=O)N[C@@H](CC(=O)O)C(=O)N[C@@H](CC(C)C)C(=O)N[C@@H](CO)C(=O)N[C@@H](C)C(=O)N[C@@H](CC(C)C)C(=O)N[C@H](C(=O)O)CSSC[C@@H](C(=O)N[C@@H](CCCNC(=N)N)C(=O)O)NC(=O)[C@H]([C@@H](C)O)NC(=O)[C@H](Cc2ccccc2)NC(=O)[C@H]([C@@H](C)CC)NC(=O)[C@H](C(C)C)NC(=O)[C@H](C)NC(=O)[C@H](CCCNC(=N)N)NC1=O [Analogue 19] (I: H-RAAKYGVRLCGREFIRAVIFTCR-OH / II: H-CTDGASMKDLSALC-OH; disulfide I:10-II:1, I:22-II:14; N-terminus assumed)
- IC50 ([1]; CHO-K1-RXFP4 cells, block of 16.6 nM analogue 13, read-out: RXFP4 Antagonist potency IC50): 79.4 nM
- Emax [1]: 71.3 ± 4.8%
- RXFP3 Activity pEC50 [2]: No activity (3)
- Ki ([3]; CHO-K1 cells stably transfected with RXFP4, competition with 5 nM Eu-DTPA-mINSL5, read-out: RXFP4 Binding Ki): 10.2 nM
- RXFP4 Activity pEC50 [4]: Weak partial agonist (4)
- IC50 ([5]; CHO-K1-RXFP3 cells, peptide 10 minutes, then 10 nM analogue 2 for 6 hours, 5 µM forskolin, mean ± SEM, read-out: RXFP3 Antagonist potency pIC50 (converted)): > 10000 nM
- Emax [5]: 76.3 ± 1.8%
- Ki ([6]; CHO-K1 cells stably transfected with RXFP3, competition with 5 nM Eu-H3B1-22R, read-out: RXFP3 Binding Ki): 7.94 nM

Structure (SMILES): CC[C@H](C)[C@@H]1NC(=O)[C@H](Cc2ccccc2)NC(=O)[C@H](CCC(=O)O)NC(=O)[C@H](CCCNC(=N)N)NC(=O)CNC(=O)[C@@H](NC(=O)[C@H](CC(C)C)NC(=O)[C@H](CCCNC(=N)N)NC(=O)[C@@H](NC(=O)CNC(=O)[C@H](Cc2ccc(O)cc2)NC(=O)[C@@H]2CCCN2C(=O)[C@H](C)NC(=O)[C@H](C)NC(=O)[C@@H](N)CCCNC(=N)N)C(C)C)CSSC[C@@H]2NC(=O)[C@@H](NC(=O)[C@H](CC(C)C)NC(=O)[C@@H](NC(=O)[C@H](CCC(N)=O)NC(=O)[C@H](CC(C)C)NC(=O)[C@H](CC(=O)O)NC(=O)[C@@H]3CCC(=O)N3)[C@@H](C)O)CSSC[C@H](NC(=O)CNC(=O)[C@H](CC(=O)O)NC(=O)[C@H]([C@@H](C)O)NC2=O)C(=O)N[C@@H](CO)C(=O)N[C@@H](CCSC)C(=O)N[C@@H]([C@@H](C)O)C(=O)N[C@@H](CC(=O)O)C(=O)N[C@@H](CC(C)C)C(=O)N[C@@H](CO)C(=O)N[C@@H](C)C(=O)N[C@@H](CC(C)C)C(=O)N[C@H](C(=O)O)CSSC[C@@H](C(=O)N[C@@H](CCCNC(=N)N)C(=O)O)NC(=O)[C@H]([C@@H](C)O)NC(=O)[C@H](Cc2ccccc2)NC(=O)[C@H]([C@@H](C)CC)NC(=O)[C@H](C(C)C)NC(=O)[C@H](C)NC(=O)[C@H](CCCNC(=N)N)NC1=O [ΔR3/I5, reference compound]
- IC50 [1]: 17.4 nM
- Emax [1]: 36.7 ± 7.4%
- RXFP3 Activity pEC50 [2]: unable to activate RXFP3; also recorded: No activity (3)
- Agonism in [35S]-GTPγS binding, cAMP activation and dynamic mass redistribution [7]: partial agonist
- Ki ([3]; SEM): 4.57 nM
- RXFP4 Activity pEC50 [4]: Weak partial agonist (5)
- Agonist activity in CHO-RXFP3 cells [8]: no agonist activity
- Agonism of p38MAPK, ERK1/2 and cAMP signalling at RXFP3 [9]: weak partial agonist
- Agonist activity at RXFP3 (original report) [10]: no agonist activity
- IC50 [5]: 117 nM
- Emax [5]: 100 ± 3.8%
- Ki ([6]; SEM): 9.77 nM
- Agonist activity at RXFP4 (original report) [11]: no agonist activity
